A value given as a limit tells only on which side of the number the result lay.

In patent publication US20230295140A1, “INHIBITORS OF VAP-1” (Acucela Inc., priority 2021, published 2023) one finds IC50 data, which are given here for two compounds.

Common to all, as to format: biochemical
What all share (details): class symbols, ranges defined in μM

One test concerns the target rhMAO-B (Homo sapiens (Human), UniProt P27338). As to the kind of experiment: MAO-Glo assay, MAO-B inhibition. The method in brief:
(§1)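 Recombinant human MAO-A or MAO-B with luciferin-derivative substrate (10 μM for MAO-A, […]) in 100 mM HEPES pH 7.5, 5% glycerol, 1 h at room temperature; luminescence read 20 min after detection reagent.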

The target of a further test is rhMAO-A (Homo sapiens (Human), UniProt P21397). The experiment in a line: MAO-Glo assay, MAO-A inhibition. Summed up:
as §1

The target of the next test is rhVAP-1 (Homo sapiens (Human), UniProt Q16853). As to the kind of experiment: VAP-1 fluorometric assay (Amplex Red/HRP, benzylamine substrate). The method in brief: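 Recombinant human VAP-1 oxidizes 50 μM benzylamine in 10 mM NaHCO3 pH 7.4 containing 0.05 mM Amplex Red and 0.5 U HRP, with inhibitor in 0.5% DMSO. After 30 min at 37 °C in the dark, resorufin fluorescence is read […], calibrated against an H2O2 standard curve.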
Sequence of rhVAP-1 (Q16853 whole entry): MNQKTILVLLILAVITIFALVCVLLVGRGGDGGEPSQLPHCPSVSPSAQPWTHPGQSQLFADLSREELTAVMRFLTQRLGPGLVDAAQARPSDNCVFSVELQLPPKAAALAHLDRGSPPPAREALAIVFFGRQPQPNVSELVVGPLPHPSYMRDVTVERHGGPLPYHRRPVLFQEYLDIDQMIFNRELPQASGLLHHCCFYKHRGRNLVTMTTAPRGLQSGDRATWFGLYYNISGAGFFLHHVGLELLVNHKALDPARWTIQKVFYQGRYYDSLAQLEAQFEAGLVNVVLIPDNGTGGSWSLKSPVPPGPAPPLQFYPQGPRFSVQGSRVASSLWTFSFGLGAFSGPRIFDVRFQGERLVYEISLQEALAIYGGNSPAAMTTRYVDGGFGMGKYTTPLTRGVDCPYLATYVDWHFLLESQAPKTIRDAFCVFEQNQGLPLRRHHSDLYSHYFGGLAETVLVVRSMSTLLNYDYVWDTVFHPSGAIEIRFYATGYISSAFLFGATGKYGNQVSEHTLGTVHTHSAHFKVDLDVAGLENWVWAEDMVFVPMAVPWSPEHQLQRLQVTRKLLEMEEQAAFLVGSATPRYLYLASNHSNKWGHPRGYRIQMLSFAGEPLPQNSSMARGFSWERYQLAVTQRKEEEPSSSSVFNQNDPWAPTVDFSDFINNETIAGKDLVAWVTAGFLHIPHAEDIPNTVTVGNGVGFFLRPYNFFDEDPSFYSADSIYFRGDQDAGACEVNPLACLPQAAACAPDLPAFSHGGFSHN

Sequence of rhMAO-A (P21397 whole entry): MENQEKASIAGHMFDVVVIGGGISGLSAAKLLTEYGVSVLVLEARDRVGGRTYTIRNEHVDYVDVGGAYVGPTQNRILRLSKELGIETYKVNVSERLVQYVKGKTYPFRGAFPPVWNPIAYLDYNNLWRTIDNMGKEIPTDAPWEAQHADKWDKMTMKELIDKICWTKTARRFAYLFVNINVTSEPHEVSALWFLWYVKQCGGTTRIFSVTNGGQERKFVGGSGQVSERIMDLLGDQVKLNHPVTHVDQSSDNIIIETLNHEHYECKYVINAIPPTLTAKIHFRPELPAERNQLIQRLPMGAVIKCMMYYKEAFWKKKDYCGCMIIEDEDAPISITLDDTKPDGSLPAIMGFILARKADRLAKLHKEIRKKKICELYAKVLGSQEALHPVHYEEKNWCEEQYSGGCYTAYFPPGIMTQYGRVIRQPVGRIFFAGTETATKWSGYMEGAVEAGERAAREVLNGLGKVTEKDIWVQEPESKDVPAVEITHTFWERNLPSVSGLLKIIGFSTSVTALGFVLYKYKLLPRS
Sequence of rhMAO-B (P27338 whole entry): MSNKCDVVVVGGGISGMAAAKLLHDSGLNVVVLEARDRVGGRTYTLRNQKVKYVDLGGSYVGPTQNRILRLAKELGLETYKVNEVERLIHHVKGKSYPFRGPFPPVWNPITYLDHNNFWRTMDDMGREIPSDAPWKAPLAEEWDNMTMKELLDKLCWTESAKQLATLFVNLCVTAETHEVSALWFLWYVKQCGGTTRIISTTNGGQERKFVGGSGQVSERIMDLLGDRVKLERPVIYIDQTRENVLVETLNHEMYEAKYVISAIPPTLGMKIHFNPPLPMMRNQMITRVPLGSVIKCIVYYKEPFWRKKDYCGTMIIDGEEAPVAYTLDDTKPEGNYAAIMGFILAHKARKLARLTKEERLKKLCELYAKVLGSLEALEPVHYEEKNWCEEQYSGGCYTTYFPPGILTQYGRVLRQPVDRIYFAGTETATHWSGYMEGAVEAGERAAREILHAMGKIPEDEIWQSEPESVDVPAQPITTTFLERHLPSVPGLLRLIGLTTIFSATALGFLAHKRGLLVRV

On to `NC/C(=C/F)COc1ccc2nc(NCCC3COC3)oc2c1` [Example 65, (Z)-6-((2-(aminomethyl)-3-fluoroallyl)oxy)-N-(2-(oxetan-3-yl)ethyl)benzo[d]oxazol-2-amine 4-methylbenzenesulfonate], for which the IC50 on rhMAO-B is 1 to 10 µM; on rhMAO-A, 0.1 to 1 µM; against rhVAP-1, under 0.1 µM.
With `CCCNc1nc2ccc(OC/C(=C/F)CN)c(F)c2o1` [Example 6, (E)-6-((2-(aminomethyl)-3-fluoroallyl)oxy)-7-fluoro-N-propylbenzo[d]oxazol-2-amine], the IC50 against rhMAO-B is 0.1 to 1 µM; against rhMAO-A it was 10 to 30 µM; against rhVAP-1, under 0.1 µM.

Broadly, the IC50 is the concentration at which inhibition is half-maximal.
